Data published in the supplement of paper PMC12076712.
± gives the standard deviation of the averaged measurements.

Experiments:
Test in all cases: pIC50, competition of probe 3 labelling in live cells
Settings in all cases: cell material: Jurkat cells
UniProt P36507 = target: UniProt P36507
MASTL = target: T1, MASTL (UniProt Q96GX5)
T1 sequence (whole entry): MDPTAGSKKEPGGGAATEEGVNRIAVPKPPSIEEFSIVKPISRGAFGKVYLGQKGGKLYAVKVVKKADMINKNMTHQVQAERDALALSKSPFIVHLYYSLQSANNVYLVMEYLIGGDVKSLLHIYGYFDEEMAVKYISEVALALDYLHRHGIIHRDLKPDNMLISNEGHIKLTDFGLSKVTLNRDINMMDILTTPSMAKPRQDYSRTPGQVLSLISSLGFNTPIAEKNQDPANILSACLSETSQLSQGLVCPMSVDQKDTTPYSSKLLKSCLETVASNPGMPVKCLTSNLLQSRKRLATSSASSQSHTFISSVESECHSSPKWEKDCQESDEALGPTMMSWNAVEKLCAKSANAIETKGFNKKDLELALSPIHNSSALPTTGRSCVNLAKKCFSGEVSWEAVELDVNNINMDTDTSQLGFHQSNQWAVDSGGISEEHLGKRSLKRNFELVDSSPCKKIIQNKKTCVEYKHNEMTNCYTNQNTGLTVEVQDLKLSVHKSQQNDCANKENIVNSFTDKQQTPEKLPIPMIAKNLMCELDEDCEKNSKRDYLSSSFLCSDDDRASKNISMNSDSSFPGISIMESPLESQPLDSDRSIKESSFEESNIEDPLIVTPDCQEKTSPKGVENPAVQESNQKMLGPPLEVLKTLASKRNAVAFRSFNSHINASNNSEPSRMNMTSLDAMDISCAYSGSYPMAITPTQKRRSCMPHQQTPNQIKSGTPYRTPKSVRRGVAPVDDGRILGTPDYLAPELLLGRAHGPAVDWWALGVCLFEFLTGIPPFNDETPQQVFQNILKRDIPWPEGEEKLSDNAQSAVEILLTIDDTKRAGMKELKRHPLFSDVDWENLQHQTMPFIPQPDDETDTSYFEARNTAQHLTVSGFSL

UniProt P06493 = target: UniProt P06493
CDK5 = CDK5 (UniProt Q00535)
Chain of CDK5 (Q00535 whole entry, looked up): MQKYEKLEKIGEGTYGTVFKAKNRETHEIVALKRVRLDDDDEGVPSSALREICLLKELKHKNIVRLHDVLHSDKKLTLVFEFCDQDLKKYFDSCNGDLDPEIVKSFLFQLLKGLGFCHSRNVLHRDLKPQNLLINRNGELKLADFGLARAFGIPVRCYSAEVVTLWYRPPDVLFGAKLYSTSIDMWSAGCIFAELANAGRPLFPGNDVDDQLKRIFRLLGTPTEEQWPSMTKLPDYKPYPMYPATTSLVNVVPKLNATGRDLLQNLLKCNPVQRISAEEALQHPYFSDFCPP

UniProt Q15208 = target: UniProt Q15208
Chain of UniProt Q15208 (Q15208 whole entry, looked up): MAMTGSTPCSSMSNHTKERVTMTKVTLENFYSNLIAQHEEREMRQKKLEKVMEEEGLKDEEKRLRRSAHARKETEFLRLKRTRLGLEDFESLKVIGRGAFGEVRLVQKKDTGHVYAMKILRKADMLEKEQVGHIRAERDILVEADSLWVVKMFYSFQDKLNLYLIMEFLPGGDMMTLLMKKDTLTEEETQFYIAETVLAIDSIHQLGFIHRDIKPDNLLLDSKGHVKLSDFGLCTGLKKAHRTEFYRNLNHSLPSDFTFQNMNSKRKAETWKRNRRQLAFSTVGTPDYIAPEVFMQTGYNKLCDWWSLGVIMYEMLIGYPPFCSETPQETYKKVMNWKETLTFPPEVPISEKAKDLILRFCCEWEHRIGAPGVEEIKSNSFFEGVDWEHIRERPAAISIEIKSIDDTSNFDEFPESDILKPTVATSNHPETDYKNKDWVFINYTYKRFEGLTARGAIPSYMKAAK

TAOK3 = TAOK3 (UniProt Q9H2K8)
FTO = FTO (UniProt Q9C0B1)
LYPLA1 = LYPLA1 (UniProt O75608)
Chain of LYPLA1 (O75608 whole entry): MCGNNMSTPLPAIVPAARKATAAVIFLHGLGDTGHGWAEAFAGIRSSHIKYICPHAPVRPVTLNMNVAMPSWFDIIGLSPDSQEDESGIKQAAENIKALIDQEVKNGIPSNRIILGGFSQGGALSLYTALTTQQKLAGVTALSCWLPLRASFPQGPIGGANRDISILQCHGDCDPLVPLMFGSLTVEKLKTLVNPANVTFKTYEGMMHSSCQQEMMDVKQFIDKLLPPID

NT5C3B = NT5C3B (UniProt Q969T7)
Chain of NT5C3B (Q969T7 whole entry): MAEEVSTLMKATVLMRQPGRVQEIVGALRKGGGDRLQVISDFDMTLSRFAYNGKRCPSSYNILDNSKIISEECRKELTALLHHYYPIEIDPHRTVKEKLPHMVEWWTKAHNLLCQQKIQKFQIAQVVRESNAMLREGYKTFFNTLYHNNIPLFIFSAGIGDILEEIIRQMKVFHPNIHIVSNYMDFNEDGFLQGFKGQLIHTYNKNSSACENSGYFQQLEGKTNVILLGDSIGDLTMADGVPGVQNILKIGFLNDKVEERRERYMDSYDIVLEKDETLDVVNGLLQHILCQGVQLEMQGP

SLK = SLK (UniProt Q9H2G2)
UniProt Q9Y6E0 = target: UniProt Q9Y6E0
Chain of UniProt Q9Y6E0 (Q9Y6E0 whole entry, looked up): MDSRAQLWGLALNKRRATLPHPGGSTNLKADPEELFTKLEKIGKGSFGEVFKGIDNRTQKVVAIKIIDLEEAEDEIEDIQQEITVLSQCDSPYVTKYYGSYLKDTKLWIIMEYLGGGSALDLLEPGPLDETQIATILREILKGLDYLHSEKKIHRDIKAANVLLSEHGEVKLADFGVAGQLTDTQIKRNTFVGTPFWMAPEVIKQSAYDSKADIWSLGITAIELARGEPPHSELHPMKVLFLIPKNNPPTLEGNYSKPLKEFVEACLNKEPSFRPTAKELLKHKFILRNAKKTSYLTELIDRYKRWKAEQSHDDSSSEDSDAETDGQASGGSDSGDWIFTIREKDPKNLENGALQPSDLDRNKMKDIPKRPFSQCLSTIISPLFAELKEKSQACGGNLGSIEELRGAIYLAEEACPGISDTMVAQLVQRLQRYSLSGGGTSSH

ABHD6 = ABHD6 (UniProt Q9BV23)
Chain of ABHD6 (Q9BV23 whole entry): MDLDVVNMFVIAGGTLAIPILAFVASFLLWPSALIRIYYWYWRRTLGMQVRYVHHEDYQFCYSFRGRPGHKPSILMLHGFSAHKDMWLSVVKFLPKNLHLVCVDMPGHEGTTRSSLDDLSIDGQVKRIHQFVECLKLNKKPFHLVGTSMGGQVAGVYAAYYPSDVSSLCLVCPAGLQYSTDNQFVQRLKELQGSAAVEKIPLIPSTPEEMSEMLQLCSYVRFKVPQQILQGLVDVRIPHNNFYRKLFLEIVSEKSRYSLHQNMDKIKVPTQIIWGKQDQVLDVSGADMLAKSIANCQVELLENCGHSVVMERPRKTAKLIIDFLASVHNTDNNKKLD

UniProt Q13043 = target: T2, UniProt Q13043
T2 sequence (whole entry): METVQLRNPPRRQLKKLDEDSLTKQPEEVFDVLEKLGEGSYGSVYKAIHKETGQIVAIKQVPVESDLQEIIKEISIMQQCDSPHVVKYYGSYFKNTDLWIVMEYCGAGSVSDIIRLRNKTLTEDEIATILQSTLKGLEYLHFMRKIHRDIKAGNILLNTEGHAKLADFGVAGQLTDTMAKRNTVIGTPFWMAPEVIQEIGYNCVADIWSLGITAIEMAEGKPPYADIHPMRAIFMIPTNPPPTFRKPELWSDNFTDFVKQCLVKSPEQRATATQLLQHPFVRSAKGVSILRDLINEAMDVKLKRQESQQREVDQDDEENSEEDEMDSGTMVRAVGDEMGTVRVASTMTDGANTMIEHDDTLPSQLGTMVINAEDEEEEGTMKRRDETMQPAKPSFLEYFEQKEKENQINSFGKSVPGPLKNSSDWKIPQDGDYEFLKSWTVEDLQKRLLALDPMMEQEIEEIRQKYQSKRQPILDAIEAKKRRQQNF

CASP6 = CASP6 (UniProt P55212)
Chain of CASP6 (P55212 whole entry): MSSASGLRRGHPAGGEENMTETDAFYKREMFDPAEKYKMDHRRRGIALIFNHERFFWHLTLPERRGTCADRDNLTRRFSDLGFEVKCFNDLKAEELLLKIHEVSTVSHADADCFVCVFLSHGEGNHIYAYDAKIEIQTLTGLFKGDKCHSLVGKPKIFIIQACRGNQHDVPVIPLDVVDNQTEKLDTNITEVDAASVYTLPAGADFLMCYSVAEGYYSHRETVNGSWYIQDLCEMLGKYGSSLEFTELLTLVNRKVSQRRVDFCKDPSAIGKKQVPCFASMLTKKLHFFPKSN

UniProt Q15831 = target: T3, UniProt Q15831
T3 sequence (whole entry): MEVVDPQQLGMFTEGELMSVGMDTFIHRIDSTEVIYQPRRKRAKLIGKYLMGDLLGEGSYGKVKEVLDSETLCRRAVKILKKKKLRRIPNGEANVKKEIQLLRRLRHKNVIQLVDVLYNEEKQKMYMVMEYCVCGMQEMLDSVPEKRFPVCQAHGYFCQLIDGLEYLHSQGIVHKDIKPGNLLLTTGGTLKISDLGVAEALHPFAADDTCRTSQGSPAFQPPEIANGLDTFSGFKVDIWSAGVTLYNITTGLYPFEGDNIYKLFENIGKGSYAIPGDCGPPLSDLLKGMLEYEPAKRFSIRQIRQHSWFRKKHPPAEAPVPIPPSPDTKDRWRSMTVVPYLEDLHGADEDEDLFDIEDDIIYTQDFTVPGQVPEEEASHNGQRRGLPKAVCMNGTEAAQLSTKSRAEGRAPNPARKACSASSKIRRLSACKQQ

UniProt P19525 = target: UniProt P19525
Chain of UniProt P19525 (P19525 whole entry): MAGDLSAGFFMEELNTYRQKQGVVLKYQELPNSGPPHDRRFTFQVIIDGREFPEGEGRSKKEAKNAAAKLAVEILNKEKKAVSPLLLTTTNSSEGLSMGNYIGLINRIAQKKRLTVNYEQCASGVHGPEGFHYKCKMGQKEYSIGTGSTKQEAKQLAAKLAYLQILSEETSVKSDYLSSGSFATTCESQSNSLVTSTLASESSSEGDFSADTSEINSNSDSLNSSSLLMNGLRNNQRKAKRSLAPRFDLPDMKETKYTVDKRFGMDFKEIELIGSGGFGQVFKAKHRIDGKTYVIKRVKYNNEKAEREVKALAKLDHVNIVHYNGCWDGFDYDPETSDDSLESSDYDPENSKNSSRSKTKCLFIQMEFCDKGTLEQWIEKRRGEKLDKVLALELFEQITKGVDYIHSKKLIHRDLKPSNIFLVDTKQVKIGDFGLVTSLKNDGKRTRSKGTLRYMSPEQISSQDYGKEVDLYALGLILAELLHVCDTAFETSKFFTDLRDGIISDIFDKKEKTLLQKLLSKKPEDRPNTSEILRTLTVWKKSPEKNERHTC

SPR = SPR (UniProt P35270)
Chain of SPR (P35270 whole entry, looked up): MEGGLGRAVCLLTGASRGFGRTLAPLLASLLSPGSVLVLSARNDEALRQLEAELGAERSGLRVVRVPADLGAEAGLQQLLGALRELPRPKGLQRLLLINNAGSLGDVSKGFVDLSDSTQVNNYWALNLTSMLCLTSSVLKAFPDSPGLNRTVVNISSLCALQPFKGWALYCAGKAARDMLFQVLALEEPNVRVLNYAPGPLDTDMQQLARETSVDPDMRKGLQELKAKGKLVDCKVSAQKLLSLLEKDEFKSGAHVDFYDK

UniProt P27361 = target: UniProt P27361
IRAK1 = IRAK1 (UniProt P51617)
UniProt Q8NEB9 = target: UniProt Q8NEB9
Chain of UniProt Q8NEB9 (Q8NEB9 whole entry): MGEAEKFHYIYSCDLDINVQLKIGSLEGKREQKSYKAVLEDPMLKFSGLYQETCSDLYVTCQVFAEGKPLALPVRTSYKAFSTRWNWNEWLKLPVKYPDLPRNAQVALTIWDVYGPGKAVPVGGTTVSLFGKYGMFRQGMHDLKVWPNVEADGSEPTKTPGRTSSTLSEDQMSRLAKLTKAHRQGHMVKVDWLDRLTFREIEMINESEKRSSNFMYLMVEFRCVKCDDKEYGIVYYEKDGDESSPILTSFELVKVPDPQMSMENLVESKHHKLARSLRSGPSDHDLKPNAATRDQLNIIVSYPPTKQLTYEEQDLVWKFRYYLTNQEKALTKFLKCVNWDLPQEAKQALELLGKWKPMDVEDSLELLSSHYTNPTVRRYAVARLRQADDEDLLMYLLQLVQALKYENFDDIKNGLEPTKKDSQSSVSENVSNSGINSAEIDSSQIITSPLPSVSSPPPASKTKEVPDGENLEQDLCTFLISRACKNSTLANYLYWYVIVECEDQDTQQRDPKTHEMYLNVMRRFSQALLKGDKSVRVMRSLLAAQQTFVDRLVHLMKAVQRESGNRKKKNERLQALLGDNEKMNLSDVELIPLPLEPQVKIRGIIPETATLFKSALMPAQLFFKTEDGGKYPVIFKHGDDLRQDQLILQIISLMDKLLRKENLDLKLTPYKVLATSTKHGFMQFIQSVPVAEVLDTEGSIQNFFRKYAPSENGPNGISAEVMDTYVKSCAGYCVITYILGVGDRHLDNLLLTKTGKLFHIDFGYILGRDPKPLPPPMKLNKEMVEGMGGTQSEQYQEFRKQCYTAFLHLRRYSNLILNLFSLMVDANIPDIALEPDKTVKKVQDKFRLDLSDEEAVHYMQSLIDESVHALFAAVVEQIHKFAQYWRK

CLK1 = CLK1 (UniProt P49759)
Chain of CLK1 (P49759 whole entry, looked up): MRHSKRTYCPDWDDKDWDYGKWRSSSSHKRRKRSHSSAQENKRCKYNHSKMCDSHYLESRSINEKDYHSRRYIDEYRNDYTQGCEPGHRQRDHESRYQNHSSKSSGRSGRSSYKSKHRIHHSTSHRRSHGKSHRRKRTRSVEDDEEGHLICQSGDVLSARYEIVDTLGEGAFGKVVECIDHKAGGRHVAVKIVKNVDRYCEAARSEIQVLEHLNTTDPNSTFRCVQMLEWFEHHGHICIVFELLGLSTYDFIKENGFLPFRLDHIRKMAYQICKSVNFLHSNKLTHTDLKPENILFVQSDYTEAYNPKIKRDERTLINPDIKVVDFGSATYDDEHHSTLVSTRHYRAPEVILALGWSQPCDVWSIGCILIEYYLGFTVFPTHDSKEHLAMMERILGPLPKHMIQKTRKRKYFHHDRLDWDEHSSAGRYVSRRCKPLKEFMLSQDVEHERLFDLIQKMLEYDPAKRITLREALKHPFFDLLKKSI

Chain of UniProt P36507 (P36507 whole entry): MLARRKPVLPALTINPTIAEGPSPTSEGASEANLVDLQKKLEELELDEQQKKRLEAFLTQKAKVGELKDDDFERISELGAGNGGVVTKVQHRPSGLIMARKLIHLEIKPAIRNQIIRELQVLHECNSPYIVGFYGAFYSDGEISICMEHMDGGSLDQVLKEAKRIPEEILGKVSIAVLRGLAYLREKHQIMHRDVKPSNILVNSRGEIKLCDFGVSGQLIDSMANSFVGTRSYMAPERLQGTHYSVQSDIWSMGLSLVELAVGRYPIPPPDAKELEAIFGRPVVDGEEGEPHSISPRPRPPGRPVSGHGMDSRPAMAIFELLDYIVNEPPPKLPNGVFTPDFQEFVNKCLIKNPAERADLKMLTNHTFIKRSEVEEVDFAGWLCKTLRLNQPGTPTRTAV

Row | pIC50 (UniProt P36507) | pIC50 (MASTL) | pIC50 (UniProt P06493) | pIC50 (CDK5) | pIC50 (UniProt Q15208) | pIC50 (TAOK3) | pIC50 (FTO) | pIC50 (LYPLA1) | pIC50 (NT5C3B) | pIC50 (SLK) | pIC50 (UniProt Q9Y6E0) | pIC50 (ABHD6) | pIC50 (UniProt Q13043) | pIC50 (CASP6) | pIC50 (UniProt Q15831) | pIC50 (UniProt P19525) | pIC50 (SPR) | pIC50 (UniProt P27361) | pIC50 (IRAK1) | pIC50 (UniProt Q8NEB9) | pIC50 (CLK1) | Structure (SMILES)
1 | < 4.52 | < 4.52 | < 4.52 | < 4.52 |  |  |  |  |  |  |  |  |  |  |  |  |  |  |  |  |  | CC#CC(=O)Nc1ccc2ncnc(Nc3cccc(Br)c3)c2c1 [EKI-785]
2 |  |  |  |  | < 4.52 | < 4.52 | < 4.52 | < 4.52 | < 4.52 | < 4.52 | < 4.52 | < 4.52 | < 4.52 | < 4.52 | 5.24 ± 0.12 | < 4.52 | < 4.52 | < 4.52 | < 4.52 | < 4.52 | < 4.52 | CCc1cnn2c(NCc3ccc[n+]([O-])c3)cc(N3CCCC[C@H]3CCO)nc12 [dinaciclib]
